{
  "source": "patent US12383500B2",
  "about": "“Nanoliposome compositions and methods of using the same” (United States Government as represented by the Department …, priority 2018, dated 2025)",
  "key": {"[1]": {"test_system": "human adipose and leptomeningeal arterioles", "test": "Endothelial function of human arterioles exposed to medin", "conditions": "medin 1 μM; Aβ42 0.5 μM"}, "human umbilical vein ECs [2]": {"test_system": "human umbilical vein ECs", "test": "Endothelial cell immune activation (gene and protein expression of IL-8, IL-6, ICAM-1, PAI-1)", "assay_type": "cell-based", "protocol": "(§1) Endothelial cell immune activation. Primary culture human umbilical vein ECs (passages 4-8, Lonza, Walkersville MD) were seeded into 6-well plates and grown to full confluence. Human umbilical vein ECs have been extensively used to study vascular cell behavior in neurodegenerative disease studies such as AD and VaD as they show similarity in properties as brain ECs, including Aβ metabolism^23, 24, expression of tight junction proteins^25 and metabolic interactions with neural cells^26. ECs were exposed to 20 hours of vehicle or medin (5 μM, dose chosen as this was the mean medin concentration found in human vascular tissue) without or with NLGM1 (300 μM). Additional replicates were also treated with NLGM1 (300 μM) plus transcription factor nuclear factor erythroid 2-related factor 2 (Nrf2) inhibitor brusatol (1 μM). EC immune activation was assessed using gene and protein expressions of inflammation-related cytokines/chemokines interleukin (IL)-8, IL-6, intercellular adhesion molecule (ICAM)-1) and plasminogen activator inhibitor (PAI)-1 (primers from IDT DNA Technologies, Coralville IL)^6, 16. Following lysis, RNA was extracted and converted to cDNA using Aurum Total RNA Mini Kit and iScript cDNA synthesis kit (Bio-Rad Laboratories, Coralville IA) with β-actin as reference normalization gene normalization. […] The conditioned cell media from treated ECs were analyzed for IL-8 and IL-6 protein by enzyme linked immunosorbent assay (ELISA) using DuoSet kit (R&D Systems, Minneapolis MN). ICAM-1 protein was measured from whole cell lysate using ICAM-1 ELISA kit (R&D Systems). PAI-1 and phosphorylated NFκB (phospho-NFκB p65, Ser536, 93H1) proteins were measured using Western blot (1:500, Cell Signaling Technology, Danvers MA)."}, "human umbilical vein ECs [3]": {"test_system": "human umbilical vein ECs", "assay_type": "cell-based", "conditions": "medin + NLGM1 + brusatol (1 μM)"}, "Nrf2": {"test_system": "Nrf2", "test": "Nuclear Nrf2, HO-1 and NQO1 protein in ECs, Western blot", "assay_type": "cell-based, human", "protocol": "Activated Nrf-2 protein was measured by separating the nuclear from cytosolic components using NE-PER Nuclear and Cytoplasmic Extraction kit (Thermo Scientific, Rockford IL) and using anti-Nrf2 primary antibody (1:500, Cell Signaling) on nuclear proteins using Western blot with tubulin as loading control. Heme oxygenase (HO)-1 and NAD(P)H Quinone dehydrogenase 1 (NQO1) proteins were measured from whole cell lysates using anti-HO-1 (1:1000, Cell Signaling Technology) and anti-NQO1 (1:1000, Cell Signaling) primary antibodies."}, "human umbilical vein ECs [4]": {"test_system": "human umbilical vein ECs", "test": "Endothelial cell oxidative stress (superoxide, dihydroethidium fluorescence)", "assay_type": "cell-based"}, "[5]": {"test_system": "Human primary astrocytes with human umbilical vein ECs", "test": "3D chip astrocyte and endothelial cell coculture IL-8", "assay_type": "cell-based", "conditions": "medin treated chips with ECs compared to medin treated chips without ECs; 20 hours", "description": "Microfluidic chip fabrication and 3D chip astrocyte and endothelial cell coculture. The microfluidic platform was fabricated in polydimethylsiloxane (PDMS) using standard SU-8 photolithography and replica molding technique, consisting of two side channels for seeding of endothelial cells (ECs) and a central region for astrocyte culture. The dimensions of the side channels' (length, width and height, are 4 mm, 250 μm and 200 μm respectively. The width of the 3D central region is 2 mm Elliptical micro-posts were localized within the central tissue region (500 um width, 100 um height) with specific micro-post spacing to optimize alignment of the astrocytes, while maintaining cellular connectivity and paracrine signaling. Creation of the master silicon wafer through photolithography was executed through spin-coating of SU-8 on a wafer to a height of 200 μm. The wafer was soft-baked, then exposed to UV through a transparent photomask with the chip design. After post-baking, the developed wafer was used as the substrate for soft lithography with PDMS replica molding. A PDMS base: curing agent ratio of 10:1 was used. Then, the PDMS channels were bonded to glass slides through oxygen plasma. […]\nHuman umbilical vein ECs were seeded into the side channels (2×10^6 cells/mL in EC media) overnight. […] Conditioned media IL-8 were measured using ELISA."}, "Human primary astrocytes": {"test_system": "Human primary astrocytes", "test": "Astrocyte monoculture IL-8 production", "assay_type": "cell-based", "conditions": "astrocytes exposed 20 hours to conditioned media from medin (5 μM)-treated ECs", "protocol": "Astrocyte monoculture. Human primary astrocytes (passage 3, Gibco, Madison WI) were seeded in gelatin matrix (4×10^4 cells/cm^2) coated plates, allowed to attach overnight and exposed for 20 hours to vehicle, medin (5 μM), conditioned media from vehicle-treated ECs (10% vol/vol exchange) or conditioned media from medin (5 μM)-treated ECs. Conditioned media IL-8 were measured by ELISA."}, "NFκB": {"test_system": "NFκB", "test": "NFκB activation (phosphorylated NFκB) in ECs, Western blot", "assay_type": "cell-based, human", "conditions": "post-exposure to medin", "protocol": "as §1"}, "[6]": {"test_system": "adipose arterioles exposed to amyloid LC proteins", "conditions": "LC from AL light chain amyloidosis patients; cited from earlier work"}, "[7]": {"test_system": "adipose arterioles exposed to amyloid LC proteins", "test": "Endothelial function (max response to acetylcholine) of adipose arterioles exposed to amyloid LC proteins", "design": "species or system human", "conditions": "NLs conjugated with clusterin (300 ng/mL), control 91.6±2%", "protocol": "Attempts to formulate NLs (cholesterol and phosphatidylcholine) that are conjugated with clusterin (300 ng/mL), both non-covalently as well as covalently through PEGylation, was successful."}, "[8]": {"conditions": "ECs 20 hours, medin 5 μM without or with co-treatment"}, "[9]": {"conditions": "medin + NLGM1 + brusatol (1 μM)"}, "[10]": {"conditions": "ECs 20 hours, medin 5 μM without or with co-treatment, ELISA of conditioned media"}},
  "data": [
    {"compound": "Aβ42: beta amyloid peptide", "values": [
      {"measurement": "endothelial and smooth muscle dysfunction compared to control response", "setting": "[1]", "value": "caused endothelial, but not smooth muscle dysfunction"}
    ]},
    {"compound": "[O-][S+](c1ccccc1)c1ccc2nnnn2n1", "note": "(stereo not shown) [RO106-9920, reference compound]", "values": [
      {"measurement": "EC ICAM-1 gene expression", "setting": "human umbilical vein ECs [2]; [8]", "value": "abolished"},
      {"measurement": "EC IL-6 gene expression", "setting": "human umbilical vein ECs [2]; [8]", "value": "abolished"},
      {"measurement": "EC IL-8 gene expression", "setting": "human umbilical vein ECs [2]; [8]", "value": "abolished"},
      {"measurement": "EC PAI-1 gene expression", "setting": "human umbilical vein ECs [2]; [8]", "value": "abolished"}
    ]},
    {"compound": "brusatol", "values": [
      {"measurement": "protective effect of NLGM1 against medin-induced EC immune activation", "setting": "human umbilical vein ECs [2]; medin + NLGM1 + brusatol (1 μM), FIG. 8H-K", "value": "did not abolish"},
      {"measurement": "protective effect of NLGM1 in terms of cell viability", "setting": "human umbilical vein ECs [3]", "value": "reversed"},
      {"measurement": "increase in HO-1 by NLGM1 co-treatment with medin", "setting": "Nrf2; [9]", "value": "abolished"},
      {"measurement": "increase in NQO1 by NLGM1 co-treatment with medin", "setting": "Nrf2; [9]", "value": "abolished"},
      {"measurement": "protective effect of NLGM1 on medin-induced superoxide production", "setting": "human umbilical vein ECs [4]; [9]", "value": "abolished"}
    ]},
    {"compound": "medin: recombinant 50-amino acid amyloid peptide, cleavage product of milk fat globule-EGF factor 8 protein", "values": [
      {"measurement": "EC ICAM-1 gene expression", "setting": "human umbilical vein ECs [2]; [8]", "value": "increased"},
      {"measurement": "EC IL-6 gene expression", "setting": "human umbilical vein ECs [2]; [8]", "value": "increased"},
      {"measurement": "EC IL-8 gene expression", "setting": "human umbilical vein ECs [2]; [8]", "value": "increased"},
      {"measurement": "EC PAI-1 gene expression", "setting": "human umbilical vein ECs [2]; [8]", "value": "increased"},
      {"measurement": "EC IL-6 protein expression", "setting": "human umbilical vein ECs [2]; [10]", "value": "increased"},
      {"measurement": "EC IL-8 protein expression", "setting": "human umbilical vein ECs [2]; [10]", "value": "increased"},
      {"measurement": "EC ICAM-1 protein expression", "setting": "human umbilical vein ECs [2]; ECs 20 hours, medin 5 μM without or with co-treatment, ELISA of whole cell lysate", "value": "increased"},
      {"measurement": "EC PAI-1 protein expression", "setting": "human umbilical vein ECs [2]; ECs 20 hours, medin 5 μM without or with co-treatment, Western blot", "value": "increased"},
      {"measurement": "nuclear Nrf2 (Nrf2 activation)", "setting": "Nrf2; ECs treated with the substance alone", "value": "no accompanying Nrf2 activation"},
      {"measurement": "astrocyte media IL-8", "setting": "[5]", "value": "significantly higher"},
      {"measurement": "astrocyte IL-8 production", "setting": "Human primary astrocytes", "value": "significant increase"},
      {"measurement": "EC superoxide production", "setting": "human umbilical vein ECs [4]; ECs 20 hours, medin without or with NLGM1", "value": "increased"},
      {"measurement": "endothelial and smooth muscle dysfunction compared to control response", "setting": "[1]", "value": "caused endothelial, but not smooth muscle dysfunction"},
      {"measurement": "NFκB activation (phosphorylated NFκB) in ECs, peak", "setting": "NFκB", "value": 1, "unit": "h"},
      {"measurement": "NFκB activation (phosphorylated NFκB) in ECs, persistence", "setting": "NFκB", "value": 20, "unit": "h"},
      {"measurement": "NFκB activation (phosphorylated NFκB) in ECs, start", "setting": "NFκB", "value": 15, "unit": "min"}
    ]},
    {"compound": "free clusterin: 80-kDa chaperone glycoprotein; sCLU isoform, commercial human recombinant clusterin protein", "values": [
      {"measurement": "endothelial dysfunction in human arterioles exposed to amyloidogenic light chain (LC) proteins", "setting": "[6]", "value": "reversed"},
      {"measurement": "max response to acetylcholine", "setting": "[7]", "value": "86.4±3.9", "unit": "%"}
    ]}
  ]
}
